Results on 22 molecules are retold here after patent US9981925B2, “Substituted benzo[d][1,2,3]triazines as p70S6K inhibitors” (Merck Patent GmbH, priority 2012, dated 2018).

One test deals with p70S6K (T412E mutant) (Homo sapiens (Human), UniProt P23443, T412E). The test can be described thus: p70S6K enzyme assay. The test is classed as biochemical. Here is the method: p70S6K inhibitor compounds were diluted and plated in 96 well plates. A reaction mixture including the following components were then added to the compound plate to initiate the enzyme reaction: p70S6K (3 nM, T412E mutant, Millipore) was mixed with 24 μM ATP in an assay buffer containing 100 mM Hepes (pH 7.5), 5 mM MgCl2, 1 mM DTT, 0.015% Brij and 1 μM of the substrate peptide FITC-AHA-[…]-OH (derived from the S6 ribosomal protein sequence, FITC=fluorescein isothiocyanate, AHA=6-aminohexanoic acid). The reaction was incubated for 90 min at 25° C., before the addition of 10 mM EDTA to stop the reaction. The proportion of substrate and product (phosphorylated) peptide was analyzed on a Caliper Life Sciences Lab Chip 3000, using a pressure of −1.4 psi, and upstream and downstream voltages of −3000 and −700, respectively. Product peaks were resolved before substrate peaks on the resulting chromatograms. To assess the inhibitory potential of the compounds, IC50 values were determined, as shown above.

A further test deals with His-AKT (Full Length) (Homo sapiens (Human), UniProt P31749). The test can be described thus: AKT/PKB kinase assay. In kind it is biochemical. Here is the method:
In order to measure AKT inhibition in the Caliper Life Sciences LC3000, a TTP Mosquito liquid handling instrument was used to place 125 nl of the appropriate concentration of inhibitor in 100% DMSO (for a dose response curve calculation) into each well of a 384-well plate. To this reaction, the following components were added to a final volume of 12.5 μl: • 0.1 ng/μl His-AKT (Full Length) (Invitrogen, Part # P2999, Lot #641228C); • 160 μM ATP (Fluka, 02055); • 1 mM DTT (Sigma, D0632); • 1 mM MgCl2 (Sigma, M1028); • 1 μM substrate peptide (sequence FITC-AHA-[…]-NH2), synthesized by • Tufts Peptide Synthesis service; • 100 mM HEPES pH 7.5 (Calbiochem, 391338); and • 0.015% Brij-35 (Sigma, B4184).
The reaction was incubated for 90 min at 25° C., and then stopped by the addition of 70 μl of Stop buffer (100 mM HEPES pH 7.5, 0.015% Brij-35, 10 mM EDTA (Sigma, E7889)). The plate was read on a Caliper LC 3000 in an Off-Chip mobility shift assay format, using the following parameters for a 12-sipper chip: screening pressure −2.3 psi, upstream voltage −500, and downstream voltage −3000. These conditions cause unphosphorylated substrate and phosphorylated product peptide to resolve as separate peaks allowing direct measurement of percentage of conversion of substrate to product. The percent conversion was plotted against concentration of inhibitor to produce a sigmoidal dose response curve, from which an IC50 was calculated.

The mark [1] stands for this setting: 24 μM ATP, 90 min at 25° C., Caliper mobility shift.
Where [2] appears, read: 160 μM ATP, 90 min at 25° C., Caliper mobility shift.
The mark [3] stands for this setting: value printed in the synthesis paragraph.

pIC50: −log10 of the molar value. Some results are limits rather than exact numbers.

His-AKT (Full Length), sequence (P31749 whole entry): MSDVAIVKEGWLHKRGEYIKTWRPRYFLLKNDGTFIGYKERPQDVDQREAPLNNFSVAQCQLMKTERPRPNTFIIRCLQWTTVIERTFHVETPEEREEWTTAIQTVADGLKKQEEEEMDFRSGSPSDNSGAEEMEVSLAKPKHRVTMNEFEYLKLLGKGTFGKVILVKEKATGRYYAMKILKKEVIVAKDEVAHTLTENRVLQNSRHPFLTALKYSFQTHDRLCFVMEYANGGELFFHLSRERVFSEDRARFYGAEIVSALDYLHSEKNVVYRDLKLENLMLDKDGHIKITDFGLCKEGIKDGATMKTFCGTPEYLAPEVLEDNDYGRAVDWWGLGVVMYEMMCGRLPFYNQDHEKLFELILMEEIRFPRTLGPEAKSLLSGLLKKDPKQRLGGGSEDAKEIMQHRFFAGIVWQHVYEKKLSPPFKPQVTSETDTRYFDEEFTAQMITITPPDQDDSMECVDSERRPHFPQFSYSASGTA
p70S6K (T412E mutant), sequence (P23443 whole entry T412E): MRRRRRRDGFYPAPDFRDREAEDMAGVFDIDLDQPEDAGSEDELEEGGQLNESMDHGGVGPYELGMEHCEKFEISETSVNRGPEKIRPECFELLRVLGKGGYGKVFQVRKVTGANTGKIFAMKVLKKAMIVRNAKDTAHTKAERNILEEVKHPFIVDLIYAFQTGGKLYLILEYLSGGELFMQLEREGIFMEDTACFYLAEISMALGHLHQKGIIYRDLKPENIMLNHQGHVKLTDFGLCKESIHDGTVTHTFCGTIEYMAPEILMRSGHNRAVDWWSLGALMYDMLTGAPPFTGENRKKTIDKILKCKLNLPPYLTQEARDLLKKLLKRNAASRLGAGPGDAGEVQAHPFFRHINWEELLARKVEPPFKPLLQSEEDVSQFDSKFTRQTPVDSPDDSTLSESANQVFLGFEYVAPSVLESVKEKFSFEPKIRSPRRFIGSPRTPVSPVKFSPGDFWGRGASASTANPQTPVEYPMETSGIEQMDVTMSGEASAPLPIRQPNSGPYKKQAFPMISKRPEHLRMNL

The pIC50 is the IC50 on a negative log10 scale, so that one unit is a factor of ten. As to `NC(=O)c1cncc2c(N[C@H](CN3CCC3)c3ccc(Cl)c(C(F)(F)F)c3)ncnc12` [Compound 20, (S)-4-((2-(azetidin-1-yl)-1-(4-chloro-3-(trifluoromethyl)phenyl)ethyl)amino)pyrido[4,3-d]pyrimidine-8-carboxamide], the pIC50 is > 7.60 at p70S6K (T412E mutant) (setting [1]) and 7.00 to 7.60 on His-AKT (Full Length) (setting [2]).
The matching figures for `Cc1cc([C@@H](CN2CCC2)Nc2ncnc3c(C(N)=O)ccnc23)ccc1Cl` [Compound 46, 4-[(S)-2-Azetidin-1-yl-1-(4-chloro-3-methyl-phenyl)-ethylamino]-pyrido[3,2-d]pyrimidine-8-carboxylic Acid Amide]: > 7.60 and > 7.60.
Consider `CC(C)NC[C@@H](Nc1ncnc2c(C(N)=O)ccnc12)c1ccc(F)c(C(F)(F)F)c1` [Compound 52, 4-[(S)-1-(4-Fluoro-3-trifluoromethyl-phenyl)-2-isopropylamino-ethylamino]-pyrido[3,2-d]pyrimidine-8-carboxylic Acid Amide], for which the pIC50 on p70S6K (T412E mutant) (setting [1]) is 7.00 to 7.60; at His-AKT (Full Length) (setting [2]), 6.30 to 7.00.
For the molecule `NC(=O)c1ccnc2c(N[C@H](CN3CCC3)c3ccc(Cl)c(C(F)(F)F)c3)ncnc12` [Compound 41, 4-[(S)-2-Azetidin-1-yl-1-(4-chloro-3-trifluoromethyl-phenyl)-ethylamino]-pyrido[3,2-d]pyrimidine-8-carboxamide], the pIC50 on p70S6K (T412E mutant) (setting [1]) is > 7.60; at p70S6K (T412E mutant) (setting [3]) it was 8.80; on His-AKT (Full Length) (setting [2]), > 7.60; against His-AKT (Full Length) (setting [3]), 7.96.
Consider `NC(=O)c1cccc2c(NCc3ccc(C(F)(F)F)cc3)nnnc12` [Compound 8, 4-((4-(trifluoromethyl)benzyl)amino)benzo[d][1,2,3]triazine-8-carboxamide], for which the negative-log IC50 (pIC50) on p70S6K (T412E mutant) (setting [1]) was 7.00 to 7.60; on His-AKT (Full Length) (setting [2]) it was < 6.00.
Consider `CC(C)c1ccc([C@@H](CN2CCC2)Nc2ncnc3c(C(N)=O)ccnc23)cc1` [Compound 37, 4-[(S)-2-Azetidin-1-yl-1-(4-isopropyl-phenyl)-ethylamino]-pyrido[3,2-d]pyrimidine-8-carboxylic Acid Amide], for which the pIC50 at p70S6K (T412E mutant) (setting [1]) was > 7.60; at His-AKT (Full Length) (setting [2]), 6.00 to 6.30.
The corresponding values for `CNC[C@@H](Nc1ncnc2c(C(N)=O)ccnc12)c1cccc(Cl)c1` [Compound 64, 4-[(S)-1-(3-Chloro-phenyl)-2-methylamino-ethylamino]-pyrido[3,2-d]pyrimidine-8-carboxylic Acid Amide] are > 7.60 and > 7.60.
As for `NC(=O)c1ccnc2c(N[C@H](CN3CCC3)c3ccc(Cl)cc3)ncnc12` [Compound 36, 4-[(S)-2-Azetidin-1-yl-1-(4-chloro-phenyl)-ethylamino]-pyrido[3,2-d]pyrimidine-8-carboxylic Acid Amide], the pIC50 on p70S6K (T412E mutant) (setting [1]) was > 7.60; at His-AKT (Full Length) (setting [2]), 6.30 to 7.00.
The matching figures for `CCNC[C@@H](Nc1ncnc2c(C(N)=O)ccnc12)c1ccc(C(F)(F)F)c(F)c1` [Compound 29, 4-[(S)-2-Ethylamino-1-(3-fluoro-4-trifluoromethyl-phenyl)-ethylamino]-pyrido[3,2-d]pyrimidine-8-carboxylic Acid Amide]: > 7.60 and 7.00 to 7.60.
The matching figures for `CNC[C@@H](Nc1ncnc2c(C(N)=O)ccnc12)c1ccc(Cl)c(C(F)(F)F)c1` [Compound 72, 4-[(S)-1-(4-Chloro-3-trifluoromethyl-phenyl)-2-methylamino-ethylamino]-pyrido[3,2-d]pyrimidine-8-carboxylic Acid Amide]: > 7.60 and > 7.60.
The corresponding values for `COc1cc([C@@H](CN(C)C)Nc2nnnc3c(C(N)=O)cccc23)ccc1Cl` [Compound 11, (S)-4-((1-(4-chloro-3-methoxyphenyl)-2-(dimethylamino)ethyl)amino)-benzo[d][1,2,3]triazine-8-carboxamide] are 7.00 to 7.60 and 6.30 to 7.00.
Turning to `CNC[C@@H](Nc1ncnc2c(C(N)=O)ccnc12)c1cccc(Br)c1` [Compound 65, 4-[(S)-1-(3-Bromo-phenyl)-2-methylamino-ethylamino]-pyrido[3,2-d]pyrimidine-8-carboxylic Acid Amide], the pIC50 on p70S6K (T412E mutant) (setting [1]) and at His-AKT (Full Length) (setting [2]) was > 7.60 throughout.
For `NC(=O)c1ccnc2c(N[C@H](CN3CCC3)c3ccc(C(F)(F)F)c(C(F)(F)F)c3)ncnc12` [Compound 63, 4-[(S)-2-Azetidin-1-yl-1-(3,4-bis-trifluoromethyl-phenyl)-ethylamino]-pyrido[3,2-d]pyrimidine-8-carboxylic Acid Amide], the negative-log IC50 (pIC50) on p70S6K (T412E mutant) (setting [1]) and on His-AKT (Full Length) (setting [2]) was > 7.60 throughout.
`NC(=O)c1cccc2c(NC3CNCCC3c3ccc(C(F)(F)F)cc3)nnnc12` (stereo not shown) [Compound 22, 4-((4-(4-(trifluoromethyl)phenyl)piperidin-3-yl)amino)benzo[d][1,2,3]triazine-8-carboxamide]: the pIC50 was > 7.60 at p70S6K (T412E mutant) (setting [1]) and 6.30 to 7.00 at His-AKT (Full Length) (setting [2]).
The corresponding values for `NC(=O)c1cccc2c(NCc3ccccn3)nnnc12` [Compound 5, 4-((pyridin-2-ylmethyl)amino)benzo[d][1,2,3]triazine-8-carboxamide] are < 6.00 and < 6.00.
The corresponding values for `CCNC[C@@H](Nc1ncnc2c(C(N)=O)ccnc12)c1ccc(C(F)(F)F)c(C(F)(F)F)c1` [Compound 59, 4-[(S)-1-(3,4-Bis-trifluoromethyl-phenyl)-2-ethylamino-ethylamino]-pyrido[3,2-d]pyrimidine-8-carboxylic Acid Amide] are > 7.60 and > 7.60.
The corresponding values for `CC(C)NC[C@@H](Nc1ncnc2c(C(N)=O)ccnc12)c1ccc(Cl)c(C(F)(F)F)c1` [Compound 55, 4-[(S)-1-(4-Chloro-3-trifluoromethyl-phenyl)-2-isopropylamino-ethylamino]-pyrido[3,2-d]pyrimidine-8-carboxylic Acid Amide] are 6.30 to 7.00 and 6.30 to 7.00.
For `CNC[C@@H](Nc1ncnc2c(C(N)=O)nccc12)c1ccc(C(C)C)cc1` [Compound 40, 4-[(S)-1-(4-Isopropyl-phenyl)-2-methylamino-ethylamino]-pyrido[3,4-d]pyrimidine-8-carboxylic Acid Amide], the pIC50 was 7.00 to 7.60 at p70S6K (T412E mutant) (setting [1]) and < 6.00 at His-AKT (Full Length) (setting [2]).
The matching figures for `CNC[C@@H](Nc1ncnc2c(C(N)=O)ccnc12)c1ccc(C(C)C)cc1` [Compound 39, 4-[(S)-1-(4-Isopropyl-phenyl)-2-methylamino-ethylamino]-pyrido[3,2-d]pyrimidine-8-carboxylic Acid Amide]: > 7.60 and 6.30 to 7.00.
The corresponding values for `CCNC[C@@H](Nc1ncnc2c(C(N)=O)ccnc12)c1cc(F)c(F)cc1F` [Compound 58, 4-[(S)-2-Ethylamino-1-(2,4,5-trifluoro-phenyl)-ethylamino]-pyrido[3,2-d]pyrimidine-8-carboxylic Acid Amide] are 7.00 to 7.60 and 6.30 to 7.00.
The corresponding values for `CNC[C@@H](Nc1ncnc2c(C(N)=O)ccnc12)c1ccc(Cl)cc1` [Compound 45, 4-[(S)-1-(4-Chloro-phenyl)-2-methylamino-ethylamino]-pyrido[3,2-d]pyrimidine-8-carboxylic Acid Amide] are > 7.60 and 7.00 to 7.60.
As to `NC(=O)c1ccnc2c(NC3CNCCC3c3ccc(C(F)(F)F)cc3)ncnc12` (stereo not shown) [Compound 25, 4-((4-(4-(trifluoromethyl)phenyl)piperidin-3-yl)amino)pyrido[3,2-d]pyrimidine-8-carboxamide], the results for the pIC50 on p70S6K (T412E mutant) (setting [1]) and on His-AKT (Full Length) (setting [2]) were > 7.60 and 6.00 to 6.30, respectively.
